From patent US7803930B2, “Antisense modulation of apolipoprotein B-expression” (Isis Pharmaceuticals, Inc., priority 2002, dated 2010)
In the oligonucleotide strings, read from the 5' end, every base follows the letter of its sugar. An asterisk marks phosphorothioate; unmarked linkages are phosphodiester. Other units and linkages are bracketed, terminal groups are in braces. A string of capitals states the bases alone. e = 2'-O-(2-methoxyethyl) (MOE); [5mC] = 5-methylcytosine; d = 2'-deoxy (DNA)

Tests used:
Type in all cases: cell-based
apolipoprotein B protein = test: Apolipoprotein B protein secreted from primary Cynomolgous monkey hepatocytes, ELISA; conditions: primary Cynomolgous hepatocytes
Description: Apolipoprotein B protein secreted from primary Cynomolgous hepatocytes treated with 150 and 300 nM of oligonucleotide was measured by ELISA using an apolipoprotein B protein specific kit (ALerCHEK Inc., Portland, Me.). Each result represents the average of 3 experiments.
Apolipoprotein B protein secreted primary Cynomolgous hepatocytes treated with 50 and 150 nM of ISIS 315089 and ISIS 281625 was measured by ELISA using an apolipoprotein B protein specific kit (ALerCHEK Inc., Portland, Me.). Each result represents the average of 3 experiments.
Apolipoprotein B protein secreted from primary Cynomolgous hepatocytes treated with 50 and 150 nM of ISIS 271009 and ISIS 301027 was measured by ELISA using an apolipoprotein B protein specific kit (ALerCHEK Inc., Portland, Me.). Each result represents the average of 3 experiments.

[1] = test system: Cynomolgous monkey apolipoprotein B mRNA; test: Apolipoprotein B mRNA in primary Cynomolgous monkey hepatocytes, real-time PCR; conditions: primary Cynomolgous monkey hepatocytes, 24 hours (Table 46)
Description: Antisense inhibition by ISIS 301012 was compared to that of ISIS 326358, which is a perfect match to the Cynomolgous monkey apolipoprotein B sequence to which ISIS 301012 hybridizes. The compounds were analyzed for their effect on Cynomolgous monkey apolipoprotein B mRNA levels in primary Cynomolgous monkey hepatocytes purchased from In Vitro Technologies ([…].). Pre-plated primary Cynonomolgous monkey hepatocytes were purchased from InVitro Technologies (Baltimore, Md.). Cells were cultured in high-glucose DMEM (Invitrogen Corporation, Carlsbad, Calif.) supplemented with 10% fetal bovine serum (Invitrogen Corporation, Carlsbad, Calif.), 100 units/mL and 100 μg/mL streptomycin (Invitrogen Corporation, Carlsbad, Calif.).
Primary Cynomolgous monkey hepatocytes were treated with 10, 50, 150 or 300 nM of antisense oligonucleotides for 48 hours. ISIS 113529 (SEQ ID NO: 859) was used as a control oligonucleotide. Untreated cells also served as a control. Cynomolgous monkey apolipoprotein B mRNA levels were quantitated by real-time PCR using the human apolipoprotein B and GAPDH primers and probes described by other examples herein. The results, shown in Table 44, are the average of 6 experiments and are expressed as percent inhibition of apolipoprotein B mRNA normalized to untreated control cells.
In a further embodiment of the invention, antisense inhibition by ISIS 281625 was compared to that by ISIS 315089, which is a perfect match to the Cynomolgous monkey apolipoprotein B sequence to which ISIS 281625 hybridizes. Primary Cynomolgous monkey hepatocytes, cultured as described herein, were treated with 10, 50, 150 or 300 nM of ISIS 315089 or ISIS 281625 for 24 hours. Cells were treated with the control oligonucleotide ISIS 13650 (SEQ ID NO: 806) at 150 and 300 nM or ISIS 113529 (SEQ ID NO: 859) at 300 nM. Untreated cells also served as a control. Cynomolgous monkey apolipoprotein B mRNA levels in primary Cynomolgous monkey hepatocytes was quantitated using real-time PCR with human primers and probe as described by other examples herein. The results, shown in Table 46, are the average of 3 experiments and are expressed as percent inhibition of apolipoprotein B mRNA normalized to untreated control cells.
ISIS 271009 (SEQ ID NO: 319) and ISIS 301027 (SEQ ID NO: 262) were also tested for their effects on apolipoprotein B mRNA and protein expression in Cynomolgous primary hepatoctyes. Cells, cultured as described herein, were treated with 10, 50 and 150 nM of ISIS 271009 or ISIS 301027 for 24 hours. Cells were treated with the control oligonucleotide ISIS 113529 (SEQ ID NO: 859) at 150 nM. Untreated cells also served as a control. Cynomolgous monkey apolipoprotein B mRNA levels in primary Cynomolgous monkey hepatocytes was quantitated using real-time PCR with human primers and probe as described by other examples herein. The results, shown in Table 48, are the average of 2 experiments and are expressed as percent inhibition of apolipoprotein B mRNA normalized to untreated control cells.

[2] = test system: human apolipoprotein(a) mRNA; test: Apolipoprotein(a) mRNA expression in primary human hepatocytes, real-time PCR; conditions: primary human hepatocytes, 24 hours
Description: Primary human hepatocytes (InVitro Technologies, Baltimore, Md.), cultured and transfected as described herein, were treated with 5, 10, 50 or 150 nM of ISIS 271009 (SEQ ID NO: 319), 281625 (SEQ ID NO: 224), 301012 (SEQ ID NO: 247) or 301027 (SEQ ID NO: 262). Cells were also treated with 50 or 150 nM of the control oligonucleotides ISIS 113529 (SEQ ID NO: 859) or ISIS 13650 (SEQ ID NO: 806). Untreated cells served as a control. Following 24 hours of oligonucleotide treatment, apolipoprotein(a) mRNA expression was measured by quantitative real-time PCR as described in other examples herein.
Probes and primers to human apolipoprotein(a) were designed to hybridize to a human apolipoprotein(a) sequence, using published sequence information (GenBank accession number NM_005577.1, incorporated herein as SEQ ID NO: 860). For human apolipoprotein(a) the PCR primers were: […]
forward primer: […] (SEQ ID NO: 861)
reverse primer: TGCGTCTGAGCATTGCGT (SEQ ID NO: 862) and the PCR probe was: FAM-[…]-TAMRA (SEQ ID NO: 863) where FAM is the fluorescent dye and TAMRA is the quencher dye.
Data are the average of three experiments and are expressed as percent inhibition relative to untreated controls.

lipoprotein(a) = test: Lipoprotein(a) particle secretion from primary human hepatocytes, ELISA; conditions: 150 nM, 24 hours
Description: Primary human hepatocytes (InVitro Technologies, Baltimore, Md.), cultured and transfected as described herein, were treated for 24 hours with 50 or 150 nM of ISIS 271009 (SEQ ID NO: 319), 281625 (SEQ ID NO: 224), 301012 (SEQ ID NO: 247) or 301027 (SEQ ID NO: 262). Cells were also treated with 150 nM of the control oligonucleotides ISIS 113529 (SEQ ID NO: 859) or ISIS 13650 (SEQ ID NO: 806). Untreated cells served as a control. Following 24 hours of oligonucleotide treatment, the amount of lipoprotein(a) in the culture medium collected from the treated cells was measured using a commercially available ELISA kit (ALerCHEK Inc., Portland, Me.). The results are the average of three experiments and are expressed as percent change in lipoprotein(a) secretion relative to untreated controls.

[3] = test system: human apolipoprotein B mRNA; test: Inhibition of human apolipoprotein B mRNA levels in HepG2 cells, quantitative real-time PCR; conditions: for % INHIB (inhibition of human apolipoprotein B mRNA levels): HepG2 cells treated with 150 nM of compound, averages from two experiments, quantitative real-time PCR; for % inhibition 37 nM / % inhibition 75 nM / % inhibition 150 nM / % inhibition 300 nM: Table 19 dose response, HepG2 cells, normalized to untreated control
Method in brief: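 Apolipoprotein B transcript was quantified by one-step TaqMan RT-PCR, normalized to GAPDH or RiboGreen RNA, and expressed as percent inhibition against an untreated-sample standard curve. HepG2 cells were harvested 16-24 h after oligonucleotide exposure, which was delivered with 3.75 μg/mL Lipofectin over 4-7 h at 80% confluency.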

[4] = test system: human apolipoprotein B mRNA; test: Inhibition of apolipoprotein B mRNA by dsRNAs in HepG2 cells; conditions: 150 nM with 3.75 μg/mL LIPOFECTIN
Description: In accordance with the present invention, a series of nucleic acid duplexes comprising the antisense compounds of the present invention and their complements were designed to target apolipoprotein B and are shown in Table 42. All compounds in Table 42 are oligoribonucleotides 20 nucleotides in length with phosphodiester internucleoside linkages (backbones) throughout the compound. The compounds were prepared with blunt ends. […] These sequences are shown to contain uracil (U) but one of skill in the art will appreciate that uracil (U) is generally replaced by thymine (T) in DNA sequences. “Targer site” indicates the first (5′-most) nucleotide number on the particular target sequence to which the compound binds. A subset of the compounds in Table 42 are the RNA equivalents of DNA antisense oligonucleotides described herein, and, where applicable, this is noted by the ISIS # of the DNA oligonucleotide in the column “RNA equivalent of ISIS #”.
The dsRNA compounds in Table 42 were tested for their effects on human apolipoprotein mRNA in HepG2 cells. HepG2 cells were treated with 100 nM of dsRNA compounds mixed with 5 μg/mL LIPOFECTIN (Invitrogen Corporation, Carlsbad, Calif.) for a period of 16 hours. In the same experiment, HepG2 cells were also treated with 150 nM of subset of the antisense oligonucleotides described herein mixed with 3.75 μg/mL LIPOFECTIN; these compounds are listed in Table 43. Control oligonucleotides included ISIS 18078 ([…], SEQ ID NO: 888). ISIS 18078 is a chimeric oligonucleotide (“gapmer”) 20 nucleotides in length, composed of a central “gap” region consisting of 9 2′-deoxynucleotides, which is flanked on the 5′ and 3′ ends by a five-nucleotide “wing” and a six-nucleotide “wing”, respectively. The wings are composed of 2′-methoxyethyl (2′-MOE)nucleotides. The internucleoside (backbone) linkages are phosphorothioate (P═S) throughout the oligonucleotide. All cytidines are 5-methylcytidines. The duplex of ISIS 263188 ([…], SEQ ID NO: 889) and its complement was also used as a control. ISIS 263188 is an oligoribonucleotide 21 nucleotides in length with the 2 nucleotides on the 3′ end being oligodeoxyribonucleotides (TT) and with phosphodiester internucleoside linkages (backbones) throughout the compound.
Cells were treated for 4 hours, after which human apolipoprotein B mRNA expression was measured as described by examples herein. Results were normalized to untreated control cells, which were not treated with LIPOFECTIN or oligonucleotide.

| Substance | % Reduction of monkey apolipoprotein B protein secretion (apolipoprotein B protein; 50 nM (Table 47)) | % Reduction of monkey apolipoprotein B protein secretion (apolipoprotein B protein; 150 nM (Table 47)) | % Reduction of monkey apolipoprotein B protein secretion (apolipoprotein B protein; 150 nM (Table 49), "+" = secretion increased) | % Inhibition of apolipoprotein B mRNA ([1]; 150 nM, "+" = expression increased) | % Inhibition of apolipoprotein B mRNA ([1]; 300 nM) | % Change in apolipoprotein(a) mRNA expression following antisense inhibition of apolipoprotein B ([2]; 50 nM) | % Change in apolipoprotein(a) mRNA expression following antisense inhibition of apolipoprotein B ([2]; 150 nM) | % Change in lipoprotein(a) secretion (lipoprotein(a)) | % INHIB (inhibition of human apolipoprotein B mRNA levels) [3] | % inhibition 37 nM [3] | % inhibition 75 nM [3] | % inhibition 150 nM [3] | % inhibition 300 nM [3] | % Inhibition of apolipoprotein B mRNA [4] |
| --- | --- | --- | --- | --- | --- | --- | --- | --- | --- | --- | --- | --- | --- | --- |
| 13650 (TCCCGCCTGTGACATGCATT; listed as DNA, chemistry not given here) [compound 13650] | 16% | 13% | +1% | +50% | 33% | −68% | −37% | +14% |  |  |  |  |  |  |
| 301029 (eG*eG*e[5mC]*eT*eG*dG*d[5mC]*dT*d[5mC]*dA*d[5mC]*dT*dG*dT*dA*eT*eG*eG*eT*eT; antisense) [compound 301029] |  |  |  |  |  |  |  |  | 90% | 54% | 67% | 79% | 85% | 77% |
| 301030 (eA*eG*eG*e[5mC]*eT*dG*dG*d[5mC]*dT*d[5mC]*dA*d[5mC]*dT*dG*dT*eA*eT*eG*eG*eT; antisense) [compound 301030] |  |  |  |  |  |  |  |  | 90% | 64% | 75% | 87% | 92% | 70% |
| 301031 (eA*eA*eG*eG*e[5mC]*dT*dG*dG*d[5mC]*dT*d[5mC]*dA*d[5mC]*dT*dG*eT*eA*eT*eG*eG; antisense) [compound 301031] |  |  |  |  |  |  |  |  | 90% | 61% | 82% | 92% | 96% | 73% |
| 301037 (e[5mC]*eA*eG*e[5mC]*eT*dT*dT*dG*dG*dT*dG*d[5mC]*dA*dG*dG*eT*e[5mC]*e[5mC]*eA*eG; antisense) [compound 301037] |  |  |  |  |  |  |  |  | 90% | 73% | 85% | 89% | 96% | 80% |
| 301038 (eG*e[5mC]*e[5mC]*eA*eG*d[5mC]*dT*dT*dT*dG*dG*dT*dG*d[5mC]*dA*eG*eG*eT*e[5mC]*e[5mC]; antisense) [compound 301038] |  |  |  |  |  |  |  |  | 86% |  |  |  |  | 84% |
| 301045 (eA*eG*e[5mC]*eA*eA*dA*dA*dT*dA*dA*d[5mC]*dT*d[5mC]*dA*dG*eA*eT*e[5mC]*e[5mC]*eT; antisense) [compound 301045] |  |  |  |  |  |  |  |  | 90% | 77% | 86% | 94% | 98% | 77% |
